Measurements reported in PMC11912471 (Journal of Medicinal Chemistry, 2025).
Structures can show the parent of a compound that is named as a salt. Where two headings read alike, the source gives them in different places.

How the values were obtained:
[1] = tested on: Kelly neuroblastoma cells; assay: Sulforhodamine B (SRB) cytotoxicity assay, Kelly neuroblastoma cells; assay type: cell-based; details: for Cell cytotoxicity (72 hr @ 500 μM) Kelly Neuroblastoma: percent cytotoxicity; for cytotoxicity at 500 µM: Kelly, 72 hrs @500 µM, supplement csv, read-out: Kelly Neuroblasoma Cells (72 hrs @500 µM) %cytotoxicity
Protocol: (§1) Our strategy to identify novel ODC inhibitors was to first screen new analogs for ODC inhibition at 50 μM using our in vitro enzyme activity assay and purified human ODC (Table 1). Those showing significant inhibition were then titrated to provide an ODC IC50 followed by cell-based screening against both cancer (Kelly neuroblastoma) and noncancerous (neonatal fibroblasts) cell lines. For the cancer cell line, higher cytotoxicity was desired and for the noncancerous cell line counter screen, lower cytotoxicity was desired.
Normal primary human neonatal fibroblast cells (ATCC) were maintained in DMEM medium (Gibco) supplemented with 10% heat-inactivated fetal bovine serum (Hyclone), penicillin (100 IU/mL), and streptomycin (100 μg/mL), nonessential amino acids (0.1 mM) and sodium pyruvate (1 mM). Kelly neuroblastoma cells (Sigma-Aldrich) were maintained in RPMI medium (Corning) supplemented with 10% heat-inactivated fetal bovine serum (Hyclone), penicillin (100 IU/mL), and streptomycin (100 μg/mL). Cell lines were routinely monitored for mycoplasma contamination using the MycoAlert PLUS Mycoplasma Detection Kit (Lonza).
The colorimetric sulforhodamine B (SRB) assay was used to measure cytotoxicity following treatment with ODC inhibitors. Briefly, Kelly neuroblastoma cells and normal primary human neonatal fibroblast cells were plated in transparent flat 96-well plates and allowed to attach overnight. Cells were treated with control or 500 μM ODC inhibitor for 72 h. Cells were then fixed with 10% TCA at 4 °C for 1 h, washed with deionized water, and dried at room temperature. Cells were stained with 100 μL of 0.4% SRB in 1% acetic acid for 20 min at room temperature, rinsed five times with 1% acetic acid and allowed to dry at room temperature. One hundred μL of 10 mM Tris–HCl pH 7.0 was added to each well, shaken for 10 min at room temperature and absorbance was read at 540 nm. Absorbance values were normalized relative to control readings and converted to percentage by multiplying by one hundred. The percent cytotoxicity was then determined by subtracting the relative percentage of the ODC inhibitor treated readings from the control which is 100%.

[2] = tested on: polyamine levels in Kelly neuroblastoma cells; assay: Polyamine analysis (HPLC of dansylated polyamines); assay type: cell-based; details: 500 μM inhibitor; for Kelly Treated Neuroblastoma Cells (Total Spm): Control = 2.57+0.47; for Kelly Treated Neuroblastoma Cells (Spd): Control = 8.52+1.63; for Kelly Treated Neuroblastoma Cells (Total Put): Control = 9.71+1.31; for Kelly Treated Neuroblastoma Cells (Total PA): Control = 20.81 +2.67; for polyamine levels relative to control (in words) / putrescine level (in words): Figure 6B
Protocol: Polyamines from Kelly neuroblastoma cells treated with 500 μM inhibitors were isolated, dansylated, and analyzed by HPLC. Briefly, polyamines were extracted and protonated in perchloric acid/sodium chloride buffer. To 100 μL of sample, 4.5 nmol of 1,7 diaminoheptane internal standard and 200 μL of 1 M sodium carbonate was added prior to dansylation with 400 μL of 5 mg/mL dansyl chloride (Sigma-Aldrich) for 60 min at 65 °C. One hundred μL of 1 M proline was then added to each reaction and incubated for 20 min at 65 °C. Polyamines were extracted from the mixture using methylene chloride. The methylene chloride was allowed to evaporate, the samples were resuspended in methanol and run through a C18 cleanup column. Samples were then analyzed using a Thermo Scientific/Dionex Ultimate 3000 HPLC, using a Syncronis C18 column (250 × 4.6 mm, […] pore size), and containing a fluorescence detector. The dansylated polyamine peaks were visualized by excitation at 340 nm and emission at 515 nm. The buffers used for elution of the polyamines were as follows: buffer A: 10 mM sodium heptanesulfonate/10% acetontrile at pH 3.4. Buffer B: 100% acetonitrile. The flow rate was 0.7 mL per minute. The column was equilibrated with 55% buffer B/45% buffer A prior to injection of the sample. Upon injection of the sample, elution of polyamines occurs in an isocratic solution of 55% buffer B/45% buffer A for 28 min. The solution was then slowly ramped to 95% buffer B/5% buffer A for 20 min. This gradient was held for 27 min to elute the spermine peak. The solution was then quickly dropped back to 55% buffer B/45% buffer A to re-equilibrate the column prior to the next sample being injected. Using the relative molar response derived from N-dansylated PA and 1,7 diaminoheptane standards, the amount of N-dansylated polyamines was calculated and normalized to total sample protein.

[3] = target: T1, purified human ODC enzyme (Homo sapiens, UniProt P11926); assay: In vitro ODC enzyme activity assay; assay type: biochemical; details: for IC50: read-out: ODC biochemical inhibition IC50
T1 construct: His6 (C); made in house; host or cells: E. coli BL21(DE3)
T1 sequence (P11926 1-461): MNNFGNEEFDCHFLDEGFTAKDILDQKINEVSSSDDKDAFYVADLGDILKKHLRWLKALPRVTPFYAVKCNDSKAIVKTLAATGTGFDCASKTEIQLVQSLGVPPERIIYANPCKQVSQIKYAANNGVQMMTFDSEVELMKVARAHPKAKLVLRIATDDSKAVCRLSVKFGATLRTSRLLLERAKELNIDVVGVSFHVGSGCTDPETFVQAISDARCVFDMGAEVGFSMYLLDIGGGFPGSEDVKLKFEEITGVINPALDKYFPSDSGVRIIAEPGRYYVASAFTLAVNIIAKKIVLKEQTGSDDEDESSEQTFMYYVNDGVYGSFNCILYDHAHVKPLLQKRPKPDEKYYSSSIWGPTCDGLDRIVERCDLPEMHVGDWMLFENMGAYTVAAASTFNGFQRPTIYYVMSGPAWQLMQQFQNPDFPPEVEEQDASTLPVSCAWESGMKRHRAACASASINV
Protocol: as §1
In vitro ODC activity was measured using 100 ng of purified human ODC enzyme, as we previously described.[53],[99] ODC was incubated with increasing concentrations of inhibitors for 30 min at room temperature in a buffer containing 25 mM Tris and 0.1 mM EDTA. […] In the cell-based ODC activity assay, Kelly neuroblastoma cells that were treated with 500 μM inhibitors were harvested in a buffer containing 25 mM Tris HCl, 0.1 mM EDTA, and 2.5 mM DTT. […] For both the in vitro and cell-based assay, the microcentrifuge tubes were then placed into scintillation vials containing a piece of filter paper saturated with 200 μL of 0.1 M NaOH to capture the release of radiolabeled carbon dioxide. The samples were incubated in a 37 °C incubator while shaking for 30 min (in vitro) or 2 h (cell-based). The enzymatic reaction was stopped by adding 250 μL of 5 M sulfuric acid to each sample and incubating at 37 °C while shaking for 30 min. The microcentrifuge tubes were removed from the scintillation vials, and 5 mL of scintillation fluid was added. Disintegrations per minute (DPM) of each sample was measured using a TriCarb liquid scintillation counter (PerkinElmer). The specific ODC activity is expressed as nmol CO2/min/mg protein (in vitro) or pmol CO2/min/mg protein (cell-based). The individual ODC inhibitor IC50 values were determined using Graphpad Prism 8.

[4] = read-out: ODC biochemical inhibition % (50 μM)

SMILES	activity against Kelly neuroblastoma cells (in words) ([1]; 72 h, 500 μM)	Cell cytotoxicity (72 hr @ 500 μM) Kelly Neuroblastoma ([1]; 500 μM) [%]	cytotoxicity at 500 µM [1] [%]	Kelly Treated Neuroblastoma Cells (Total Spm) [2]	Kelly Treated Neuroblastoma Cells (Spd) [2]	Kelly Treated Neuroblastoma Cells (Total Put) [2]	Kelly Treated Neuroblastoma Cells (Total PA) [2]	polyamine levels relative to control (in words) ([2]; Kelly neuroblastoma cells)	putrescine level (in words) ([2]; Kelly neuroblastoma cells)	inhibition at 50 µM ([3]; 50 µM, supplement csv, read-out: ODC % inhibition (screened at 50 µM)) [%]	inhibition at 50 µM [3, 4] [%]	IC50 [3] [nM]	spermidine and spermine levels (in words) ([2]; Kelly neuroblastoma cells, relative to APA)
NCCCON [APA, 3-(Aminooxy)propan-1-Amine Dihydrochloride]	greater anticancer activity	77±21	77	5.09+1.39	7.14+6.27	0	12.2+7.59	reduced polyamine levels	undetected	99	> 99	40	–
Cl.Cl.NOCC1(F)CCNC1 (centres unmarked) [Compound 11, 3-[(aminooxy)methyl]-3-fluoropyrrolidine di-formic acid]	–	46±9	46	2.74+0.46	1.81+0.73	0	4.55+1.14	reduced polyamine levels	undetected	–	> 99	50	greatest reductions
